Measurements taken from ChEMBL document CHEMBL1139661, “Arylaminoethyl amides as noncovalent inhibitors of cathepsin S. Part 2: Optimization of P1 and N-aryl” (Bioorg Med Chem Lett, 2006).

What was measured:
Assay type in all cases: ADME, organism-based; call rule not given here
[1] = AUC in Wistar rat at 10 mg/kg, po; set-up: dose 10 mg/kg, route oral; settings: plasma
[2] = Cmax in Wistar rat at 10 mg/kg, po; set-up: dose 10 mg/kg, route oral; settings: in vivo
Rattus norvegicus = experiment: (§1) Half life in Wistar rat at 10 mg/kg; set-up: dose 10 mg/kg; settings: in vivo
[3] = Oral bioavailability in Wistar rat at 10 mg/kg, po; settings: in vivo
[4] = as §1; set-up: dose 10 mg/kg; settings: Wistar, in vivo

AUC [1] [ng·h/mL]	Cmax [2] [nM]	T1/2 (Rattus norvegicus)	bioavailability [3] [%]	half-life [4] [min]	Compound
308	293	Not Active	8	–	CCOC(=O)C[C@@H](CN1CCc2cc(F)ccc21)NC(=O)[C@H](CCC1CCCCC1)NC(=O)c1cccc(OC)c1
100	45	–	2	33.6	COc1cccc(C(=O)N[C@@H](CC(C)(C)C)C(=O)N[C@@H](CC(=O)O)CN2CCc3cc(F)ccc32)c1
